US20140066365A1, “USE OF CALIXARENES ASSOCIATED WITH AN ANTIBIOTIC IN THE TREATMENT OF BACTERIAL INFECTIONS” (priority 2011, published 2014)
Converted amounts (≈) assume the structure as drawn. Like-named read-outs stand apart in the source and are kept apart here.

What was measured:
Assay type in all cases: cell-based
[1] = system: EcR1: Penicillinase-Producing Escherichia coli without Associated Resistance; assay: Antibiogram, MIC by the VITEK 2 system; details: for CA-SFM Interpretation: EcR1, MIC against Cc CA-SFM 2011; for CLSI Interpretation: EcR1, MIC against Cc CLSI 2011; for EUCAST Interpretation: EcR1, MIC against Cc EUCAST 2011; for Results: EcR1, interpretation of the MIC, Table A1; for MIC: Escherichia coli
Procedure: (§1) 5.1 EcR1: Penicillinase-Producing Escherichia coli without Associated Resistance The bacterial and antibiogramidentification is carried out by the VITEK 2 system (bioMérieux) and by the disk diffusion technique.

[2] = system: EcR1: Penicillinase-Producing Escherichia coli without Associated Resistance; assay: Antibiogram by the disk diffusion technique; details: for Diameter: EcR1, disk diffusion; for Diameter / Results: Table A1; for Results: EcR1, interpretation of the diameter against Dmin Dmax; for MIC mg/L (diameter in mm): EcR1, cells that print a diameter, Table A2; for CA-SFM Interpretation: EcR1, diameter against CA-SFM 2011 limits; for CLSI Interpretation: EcR1, diameter against CLSI 2011 limits; for EUCAST Interpretation: EcR1, diameter against EUCAST 2011 limits
Procedure: as §1

[3] = system: EcR2: Cephalosporinase-Hyperproducing Strain of Escherichia coli; assay: Antibiogram, MIC by the VITEK 1 system; details: for Results: EcR2, Table B1; for CA-SFM Interpretation / CLSI Interpretation / EUCAST Interpretation: from MIC; for CA-SFM Interpretation: Cc CA-SFM 2011; for CLSI Interpretation: Cc CLSI 2011; for EUCAST Interpretation: Cc EUCAST 2011; for MIC: Escherichia coli
Procedure: (§2) The bacterial and antibiogramidentification is carried out by the VITEK 1 system (bioMérieux) and by the disk diffusion technique

[4] = system: EcR3: ESBL-Producing Escherichia coli; assay: Antibiogram by the disk diffusion technique; details: for CA-SFM Interpretation: Cd CA-SFM 2011; for CLSI Interpretation: Cd CLSI 2011; for Diameter: Table C1; for Results: Table C1, against Dmin Dmax; for diameter in mm: Table C2; for EUCAST Interpretation: Cd EUCAST 2011
Procedure: The bacterial and antibiogramidentification is carried out by the VITEK 2 system (bioMerieux) and by the disk diffusion technique

[5] = system: PaR3: Pseudomonas aeruginosa; assay: Antibiogram, MIC by the VITEK 2 system; details: for CA-SFM Interpretation: Cc CA-SFM 2011; for CLSI Interpretation: Cc CLSI 2011; for EUCAST Interpretation: Cc EUCAST 2011
Procedure: (§3) The bacterial and antibiogramidentification is carried out by the VITEK 2 system (bioMérieux)

[6] = system: PaR5: Pseudomonas aeruginosa; assay: Antibiogram by the disk diffusion technique; details: for Diameter / Results / CA-SFM Interpretation / CLSI Interpretation / EUCAST Interpretation: PaR5; for Diameter / Results: Table I1; for Results: against Dmin-Dmax; for diameter in mm: disk diffusion inhibition diameter, strain PaR5; for CA-SFM Interpretation / CLSI Interpretation / EUCAST Interpretation: disk diffusion; for CA-SFM Interpretation: versus critical diameter CA-SFM 2011; for CLSI Interpretation: versus critical diameter CLSI 2011; for EUCAST Interpretation: versus critical diameter EUCAST 2011, for ** antibiotics the disk load differs and the EUCAST interpretation is not applicable
Procedure: (§4) The bacterial and antibiogramidentification is carried out by the VITEK 2 system (bioMérieux) and by the disk diffusion technique

[7] = system: SaR1: Meticillin-Resistant Staphylococcus aureus without Associated Resistance; assay: Antibiogram, MIC by the VITEK 2 system; details: SaR1; for CA-SFM Interpretation: Cc CA-SFM 2011; for CLSI Interpretation: Cc CLSI 2011; for EUCAST Interpretation: Cc EUCAST 2011; for Results: from MIC; for MIC: Staphylococcus aureus, read-out: MIC
Procedure: as §3

[8] = system: SaR4: Meticillin-Resistant Staphylococcus aureus; assay: Antibiogram, MIC by the VITEK 2 system; details: SaR4; for MIC: Staphylococcus aureus, read-out: MIC
Procedure: as §4

[9] = system: PaR2: Pseudomonas aeruginosa
Procedure: as §4

[10] = system: EcR2: Cephalosporinase-Hyperproducing Strain of Escherichia coli; assay: Antibiogram by the disk diffusion technique
Procedure: as §2

[11] = system: SaR3: Meticillin-Resistant Staphylococcus aureus; assay: Antibiogram by the disk diffusion technique
Procedure: as §4

[12] = EcR1, Table A2, read-out: MIC mg/L (diameter in mm)
[13] = EcR1, VITEK 2, Table A1, read-out: MIC
[14] = EcR2, VITEK 1, Table B1, read-out: MIC
[15] = EcR2, Table B2, MIC, read-out: MIC
[16] = Pseudomonas aeruginosa, Table H2, read-out: MIC

## CC(=O)OCC1=C(C(=O)O)N2C(=O)[C@@H](NC(=O)Cc3cccs3)[C@H]2SC1 [C1G, Cefalotine]
[1]
  CA-SFM Interpretation: Susceptible
  CLSI Interpretation: Susceptible
  EUCAST Interpretation: Susceptible
  Results: Susceptible
[1]; [12]
  MIC: 4 mg/L (≈ 10.1 µM)
[1]; [13]
  MIC: 4 mg/L (≈ 10.1 µM)
[2]
  Diameter: 17 mm
  Results: Intermediate
[3]
  Results: Resistant
[3]; EcR2
  CA-SFM Interpretation: Resistant
  CLSI Interpretation: Resistant
  EUCAST Interpretation: Resistant
[3]; [14]
  MIC: ≥ 64 mg/L
[3]; [15]
  MIC: ≥ 64 mg/L
[4]
  CA-SFM Interpretation: Resistant
  CLSI Interpretation: Resistant
  Diameter: 6 mm
  Results: Resistant
  diameter in mm: 6 mm

## C[C@@H](O)[C@H]1C(=O)N2C(C(=O)O)=C(S[C@@H]3CN[C@H](C(=O)N(C)C)C3)[C@H](C)[C@H]12 [Meropenem]
[5]
  CA-SFM Interpretation: Resistant
  CLSI Interpretation: Resistant
  EUCAST Interpretation: Resistant
[5]; [16]
  MIC: ≥ 16 µg/mL
[5]; Table H1
  MIC: ≧16
  Results: Resistant
[6]
  Diameter: 34 mm
  Results: Susceptible
  diameter in mm: 34 mm
  CA-SFM Interpretation: Susceptible
  CLSI Interpretation: Susceptible
  EUCAST Interpretation: Susceptible

## Quinupristin-dalfopristin
[7]
  CA-SFM Interpretation: Susceptible
  CLSI Interpretation: Susceptible
  EUCAST Interpretation: Susceptible
[7]; Table D1
  MIC mg/L: ≦0.25 mg/L
  Results: Susceptible
[7]; Table D2
  MIC mg/L: ≦0.25 mg/L

## CCn1cc(C(=O)O)c(=O)c2cc(F)c(N3CCN(C)CC3)cc21 [Pefloxacin]
[2]
  Diameter: 26 mm
[3]
  Results: Resistant
[3]; EcR2
  CA-SFM Interpretation: Resistant
[3]; [14]
  MIC: ≥ 8 mg/L
[3]; [15]
  MIC: ≥ 8 mg/L
[4]
  CA-SFM Interpretation: Susceptible
  Diameter: 23 mm
  diameter in mm: 23 mm

## CCn1cc(C(=O)O)c(=O)c2ccc(C)nc21 [Nalidixic acid]
[1]
  CA-SFM Interpretation: Susceptible
  CLSI Interpretation: Susceptible
  Results: Susceptible
[1]; read-out: MIC mg/L
  MIC: ≤ 2 mg/L
[1]; read-out: MIC mg/L (diameter in mm)
  MIC: ≤ 2 mg/L
[3]
  Results: Resistant
  MIC: ≥ 32 mg/L
[3]; EcR2
  CA-SFM Interpretation: Resistant
  CLSI Interpretation: Resistant
[3]; read-out: MIC mg/L
  MIC: ≥ 32 mg/L

## CCn1cc(C(=O)O)c(=O)c2cc(F)c(N3CCNCC3)cc21 [Norofloxacin]
[6]
  Diameter: 17 mm
  Results: Resistant

## CN(C)[C@@H]1C(O)=C(C(N)=O)C(=O)[C@@]2(O)C(O)=C3C(=O)c4c(O)cccc4[C@@](C)(O)[C@H]3C[C@@H]12 [Tetracycline]
[8]; Table F1
  MIC: ≤ 1 µg/mL
[8]; Table F2, MIC
  MIC: ≤ 1 µg/mL

## O=C1CN(/N=C/c2ccc([N+](=O)[O-])o2)C(=O)N1 [Nitrofurantoin]
[1]; [12]
  MIC: ≤ 16 mg/L
[1]; [13]
  MIC: ≤ 16 mg/L
[3]; [14]
  MIC: ≤ 25 mg/L
[3]; [15]
  MIC: ≤ 25 mg/L
[7]; Table D2
  MIC mg/L: ≦16 mg/L
[7]; Table D1
  MIC: ≤ 16 µg/mL
[8]; Table F1
  MIC: ≤ 25 µg/mL
[8]; Table F2, MIC
  MIC: ≤ 25 µg/mL

## CO/N=C(\C(=O)N[C@@H]1C(=O)N2C(C(=O)[O-])=C(C[N+]3(C)CCCC3)CS[C@H]12)c1csc(N)n1 [Cefepime]
[2]
  MIC mg/L (diameter in mm): 27 mm
  CA-SFM Interpretation: Susceptible
  CLSI Interpretation: Susceptible
  EUCAST Interpretation: Susceptible
  Diameter: 27 mm
  Results: Susceptible

## C[C@H]1[C@H](NC(=O)/C(=N\OC(C)(C)C(=O)O)c2csc(N)n2)C(=O)N1S(=O)(=O)O [Aztreonam]
[2]
  MIC mg/L (diameter in mm): 28 mm
  CA-SFM Interpretation: Susceptible
  CLSI Interpretation: Susceptible
  EUCAST Interpretation: Susceptible
  Diameter: 28 mm
  Results: Susceptible

## CCn1cc(C(=O)O)c(=O)c2cc(F)c(N3CCNCC3)cc21 [Norfloxacin]
[1]
  CA-SFM Interpretation: Susceptible
  CLSI Interpretation: Susceptible
  EUCAST Interpretation: Susceptible
  Results: Susceptible
[1]; [12]
  MIC: ≤ 0.5 mg/L
[1]; [13]
  MIC: ≤ 0.5 mg/L

## O=C(O)c1cn(C2CC2)c2cc(N3CCNCC3)c(F)cc2c1=O [Ciprofloxacin]
[2]
  Results: Susceptible
[4]
  CA-SFM Interpretation: Susceptible
  Results: Susceptible

## CC1(C)S[C@@H]2[C@H](NC(=O)[C@H](C(=O)O)c3ccsc3)C(=O)N2[C@H]1C(=O)O [Ticarcillin]
[1]
  CA-SFM Interpretation: Resistant
  CLSI Interpretation: Resistant
  EUCAST Interpretation: Resistant
  Results: Resistant
[1]; [12]
  MIC: ≥ 128 mg/L
[1]; [13]
  MIC: ≥ 128 mg/L
[2]
  Diameter: 6 mm
  Results: Resistant
[3]
  Results: Intermediate
[3]; EcR2
  CA-SFM Interpretation: Resistant
  CLSI Interpretation: Resistant
  EUCAST Interpretation: Resistant
[3]; [14]
  MIC: 32 mg/L (≈ 83.2 µM)
[3]; [15]
  MIC: 32 mg/L (≈ 83.2 µM)
[4]
  CA-SFM Interpretation: Resistant
  CLSI Interpretation: Resistant
  EUCAST Interpretation: Resistant
  Diameter: 6 mm
  Results: Resistant
  diameter in mm: 6 mm
[5]
  CA-SFM Interpretation: Resistant
  CLSI Interpretation: Resistant
  EUCAST Interpretation: Resistant
[5]; [16]
  MIC: ≥ 128 µg/mL
[5]; Table H1
  MIC: ≧128
  Results: Resistant
[6]
  Diameter: 32 mm
  Results: Susceptible
  diameter in mm: 32 mm
  CA-SFM Interpretation: Susceptible
  CLSI Interpretation: Susceptible
  EUCAST Interpretation: Susceptible
[9]; Cd CA-SFM 2011
  CA-SFM Interpretation: Resistant
[9]; Cd CLSI 2011
  CLSI Interpretation: Resistant
[9]; Cd EUCAST 2011
  EUCAST Interpretation: Resistant
[9]; Table G1
  Diameter: 10 mm
[9]; Table G1, against Dmin-Dmax
  Results: Resistant
[9]; Table G2
  diameter in mm: 10 mm

## CO[C@@]1(NC(=O)Cc2cccs2)C(=O)N2C(C(=O)O)=C(COC(N)=O)CS[C@@H]21 [Cefoxitin]
[1]
  CA-SFM Interpretation: Susceptible
  CLSI Interpretation: Susceptible
  Results: Susceptible
[1]; [12]
  MIC: ≤ 4 mg/L
[1]; [13]
  MIC: ≤ 4 mg/L
[2]
  Diameter: 24 mm
  Results: Susceptible
[10]; EcR2, disk diffusion, Table B1
  Diameter: 11
[10]; EcR2, rows that print a diameter, Table B1
  Results: Resistant
[10]; EcR2, Table B2, diameters
  Diameter: 11 mm
[10]; EcR2, from diameter, CA-SFM 2011
  CA-SFM Interpretation: Resistant
[10]; EcR2, from diameter, CLSI 2011
  CLSI Interpretation: Resistant
[10]; EcR2, from diameter, EUCAST 2011
  EUCAST Interpretation: Resistant
[4]
  CA-SFM Interpretation: Resistant
  CLSI Interpretation: Resistant
  EUCAST Interpretation: Resistant
  Results: Intermediate
  diameter in mm: 6 mm
[11]; Cd CA-SFM 2011
  CA-SFM Interpretation: Resistant
[11]; Cd CLSI 2011
  CLSI Interpretation: Resistant
[11]; Cd EUCAST 2011
  EUCAST Interpretation: Resistant
[11]; Table E2
  diameter in mm: 17 mm

## Cc1onc(-c2ccccc2)c1C(=O)N[C@@H]1C(=O)N2[C@@H]1SC(C)(C)[C@@H]2C(=O)O [Oxacillin]
[7]
  CA-SFM Interpretation: Resistant
  CLSI Interpretation: Resistant
  EUCAST Interpretation: Resistant
[7]; Table D1
  Results: Resistant
  MIC: ≥ 8 µg/mL
[7]; Table D2
  MIC mg/L: ≧8 mg/L
[8]; Table F1, MIC
  Results: Resistant
[8]; from MIC, Cc CA-SFM 2011
  CA-SFM Interpretation: Resistant
[8]; from MIC, Cc CLSI 2011
  CLSI Interpretation: Resistant
[8]; from MIC, Cc EUCAST 2011
  EUCAST Interpretation: Resistant
[8]; Table F1
  MIC: ≥ 8 µg/mL
[8]; Table F2, MIC
  MIC: ≥ 8 µg/mL
